Source: patent publication US20110009343A1, “MODULATORS OF AMYLOID AGGREGATION” (Praecis Pharmaceuticals, Inc., priority 1995, published 2011)
Ends that are not written are not given here. Peptide text beside a SMILES is read from it. * marks the point of attachment. Cholyl = C[C@H](CCC(=O)*)[C@H]1CC[C@H]2[C@@H]3[C@H](O)C[C@@H]4C[C@H](O)CC[C@]4(C)[C@H]3C[C@H](O)[C@]12C

Assays:
Aβ(1-40) peptide [1] = target: T1, Aβ(1-40) peptide (Homo sapiens, UniProt P05067); test: Seeded static assay (SSA), Thioflavin-T fluorescence; format: biochemical; settings: inhibitor tested at 100 μM and 10 μM
T1 construct: (β-AP1-40) was obtained commercially from Bachem (Torrance, Calif.); purchased Bachem (Torrance, Calif.)
Protocol: The peptide was dissolved in 1/25 volume of dimethysulfoxide (DMSO), followed by water to 1/2 volume and 1/2 volume 2×PBS (10×PBS: NaCl 137 mM, KCl 2.7 mM Na2HPO4.7H2O 4.3 mM, KH2PO4 1.4 mM pH 7.2) to a final concentration of 200 μM.
To prepare a stock seed, 1 ml of the above Aβ monomer preparation, was incubated for 8 days at 37° C. and sheared sequentially through an 18, 23, 26 and 30 gauge needle 25, 25, 50, and 100 times respectively. 2 μl samples of the sheared material was taken for fluorescence measurements after every 50 passes through the 30 gauge needle until the fluorescence units (FU) had plateaued (approx. 100-150×).
To prepare a candidate inhibitor, the required amount of candidate inhibitor was weighed out and the stock dissolved in 1×PBS to a final concentration of 1 mM (10× stock). If insoluble, it was dissolved in 1/10 volume of DMSO and diluted in 1×PBS to 1 mM. […]
For the aggregation assay, each sample was set up in triplicate [50 μl of 200 μM monomer, 125 FU sheared seed (variable quantity dependent on the batch of seed, routinely 3-6 μl), 10 μl of 10× inhibitor solution, final volume made up to 100 μl with 1×PBS]. […] The assay was incubated at 37° C. for 6 h, taking 2 μl samples hourly for fluorescence measurements. To measure fluorescence, a 2 μl sample of Aβ was added to 400 μl of Thioflavin-T solution (50 mM Potassium Phosphate 10 mM Thioflavin-T pH 7.5).

Aβ(1-40) peptide [2] = target: T1, Aβ(1-40) peptide; test: Shaken plate aggregation assay (absorbance 405 nm); format: biochemical; settings: % conc relative to Aβ(1-40) as printed in cell
Protocol: HFIP solubilized peptide was sonicated in a waterbath sonicator for 5 mM at highest setting, then evaporated to dryness under a stream of argon. The peptide film was resuspended in anhydrous dimethylsulfoxide (DMSO) at a concentration of 6.9 mg/ml, sonicated for 5 mM as before, then filtered through a 0.2 micron nylon syringe filter (VWR cat. No. 28196-050).
Candidates were assayed in triplicate. […] Into an ultra low binding 96 well plate (Corning Costar cat. No. 2500, Cambridge Mass.) 100 rtl PTL buffer (150 mM NaCl, 10 mM NaH2PO4; pH 7.4) was aliquotted per well. For each candidate, 10 μl of peptide mixture in DMSO was aliquotted into each of three wells containing buffer. The covered plate was vigorously vortexed on a plate shaker at high speed for 30 seconds. An additional 100 μl of PTL buffer was added to each well and again the plate was vortexed vigorously for 30 sec. Absorbance at 405 nm was immediately read in a plate reader for a baseline reading. The plate was returned to the plate shaker and vortexed at moderate speed for 5 hours at room temperature, with absorbance readings taken at 15-20 mM intervals. Increased absorbance indicated aggregation.

Aβ1-40 = target: T2, Aβ1-40 (Homo sapiens, UniProt P05067); test: Nucleation assay (turbidity, A405 nm); format: biochemical; settings: for ΔLag (ratio of lag time with test compound to lag time of control) / inhibition at 100 mol %: Table V; for ΔLag (ratio of lag time with test compound to lag time of control): 100 mole % inhibitor relative to Aβ1-40; for inhibition at 100 mol %: 100 mole % inhibitor, read-out: % Inucl'n (percent reduction in maximum observed turbidity);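 on all read-outs here: synthetic Aβ monomer polymerization followed by turbidity in 96-well plates with continuous shaking, read every 15 minutes over 5 hours, compared against wells lacking test compound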
T2 construct: (β-AP1-40) was obtained commercially from Bachem (Torrance, Calif.); purchased Bachem (Torrance, Calif.)
Source text: The nucleation assay is employed to determine the ability of test compounds to alter (e.g. inhibit) the early events in formation of β-AP fibers from monomeric β-AP. […] The time delay before polymerization of β-AP monomer can be quantified as well as the extent of formation of insoluble fiber by light scattering (turbidity). Polymerization reaches equilibrium when the maximum turbidity reaches a plateau. The turbidity of a solution of natural β-AP in the absence or presence of various concentrations of a β-amyloid modulator compound is determined by measuring the apparent absorbance of the solution at 405 nm (A405 nm) over time. The threshold of sensitivity for the measurement of turbidity is in the range of 15-20 μM β-AP. […] This assay can be performed using stirring or shaking to accelerate polymerization, thereby increasing the speed of the assay. Moreover the assay can be adapted to a 96-well plate format to screen multiple compounds.
HFIP-solubilized peptide is sonicated in a waterbath sonicator for 5 mM at highest setting, then evaporated to dryness under a stream of argon. The peptide film is resuspended in anhydrous dimethylsulfoxide (DMSO) at a concentration of 6.9 mg/ml (25× concentration), sonicated for 5 mM as before, then filtered through a 0.2 micron nylon syringe filter (VWR cat. No. 28196-050). Test compounds are dissolved in DMSO at a 100× concentration. […] Ten microliters of the mixture is then added to the bottom of a well of a Corning Costar ultra low binding 96-well plate (Corning Costar, Cambridge Mass.; cat. No. 2500). Ninety microliters of water is added to the well, the plate is shaken on a rotary shaken at a constant speed at room temperature for 30 seconds, an additional 100 μl of 2×PTL buffer (20 mM NaH2PO4, 300 mM NaCl, pH 7.4) is added to the well, the plate is reshaken for 30 seconds and a baseline (t=0) turbidity reading is taken by measuring the apparent absorbance at 405 nm using a Bio-Rad Model 450 Microplate Reader. The plate is then returned to the shaker and shaken continuously for 5 hours. Turbidity readings are taken at 15 minute intervals.
β-amyloid aggregation in the absence of any modulators results in enhanced turbidity of the natural β-AP solution (i.e., an increase in the apparent absorbance at 405 nm over time).
Accordingly a fold increase in lag time of 1.0 indicates no change in lag time, whereas numbers >1.0 indicate an increase in lag time. The “% inhibition of plateau”, which is a measure of the ability of the compound to decrease the total amount of aggregation, refers to the reduction of the final turbidity in the presence of the test compound expressed as a percent of the control without the test compound.

cultured neuronal cells = test: Neurotoxicity of Aβ1-40 preparations with or without modulator (MTT), cell line not specified; format: cell-based; settings: for delay of the appearance of neurotoxicity relative to control: compared with delay of polymerization in nucleation assay
Protocol: The neurotoxicity of natural β-amyloid peptide aggregates, in either the presence or absence of a β-amyloid modulator, is tested in a cell-based assay using either a rat or human neuronally-derived cell line (PC-12 cells or NT-2 cells, respectively) and the viability indicator 3,(4,4-dimethylthiazol-2-yl)2,5-diphenyl-tetrazolium bromide (MTT). […] MTT (commercially available from Sigma Chemical Co.) is a chromogenic substrate that is converted from yellow to blue in viable cells, which can be detected spectrophotometrically.
To test the neurotoxicity of natural β-amyloid peptides, stock solutions of fresh Aβ monomers and aged Aβ aggregates were first prepared. […] Peptide prepared in this way and tested immediately on cells is referred to as “fresh” Aβ monomer. To prepare “aged” Aβ aggregates, peptide solution was placed in a 1.5 ml Eppendorf tube and incubated at 37° C. for eight days to allow fibrils to form. Such “aged” Aβ peptide can be tested directly on cells or frozen at −80° C. The neurotoxicity of fresh monomers and aged aggregates were tested using PC12 and NT2 cells. PC 12 cells were routinely cultured in Dulbeco's modified Eagle's medium (DMEM) containing 10% horse serum, 5% fetal calf serum, 4 mM glutamine, and 1% gentamycin. NT2 cells were routinely cultured in OPTI-MEM medium (GIBCO BRL CAT. #31985) supplemented with 10% fetal calf serum, 2 mM glutamine and 1% gentamycin. Cells were plated at 10-15,000 cells per well in 90 μl of fresh medium in a 96-well tissue culture plate 3-4 hours prior to treatment. The fresh or aged Aβ peptide solutions (10 μL) were then diluted 1:10 directly into tissue culture medium so that the final concentration was in the range of 1-10 μM peptide. Cells are incubated in the presence of peptide without a change in media for 48 hours at 37° C. For the final three hours of exposure of the cells to the β-AP preparation, MTT was added to the media to a final concentration of 1 mg/ml and incubation was continued at 37° C. Following the two hour incubation with MTT, the media was removed and the cells were lysed in 100 μL isopropanol/0.4N HCl with agitation. An equal volume of PBS was added to each well and the plates were agitated for an additional 10 minutes. Absorbance of each well at 570 nm was measured using a microtiter plate reader to quantitate viable cells.

natural β-AP (β-AP1-40) = target: T3, natural β-AP (β-AP1-40) (Homo sapiens, UniProt P05067); test: Optical density (turbidity, A400 nm) aggregation assay; format: biochemical
T3 construct: (β-AP1-40) was obtained commercially from Bachem (Torrance, Calif.); purchased Bachem (Torrance, Calif.)
Protocol: In one assay, β-AP aggregation was measured by determining the increase in turbidity of a solution of natural β-AP over time in the absence or presence of various concentrations of the modulator. Turbidity of the solution was quantitated by determining the optical density at 400 nm (A400 nm) of the solution over time.
The aggregation of natural β-AP in the absence of modulator was determined as follows. β-AP1-40 was dissolved in hexafluoro isopropanol (HFIP; Aldrich Chemical Co., Inc.) at 2 mg/ml. Aliquots of the HFIP solution (87 μl) were transferred to individual 10 mm×75 mm test tubes. A stream of argon gas was passed through each tube to evaporate the HFIP. To the resulting thin film of peptide, dimethylsulfoxide (DMSO; Aldrich Chemical Co., Inc.) (25 μl) was added to dissolve the peptide. A 2 mm×7 mm teflon-coated magnetic stir bar was added to each tube. Buffer (475 μL of 100 mM NaCl, 10 mM sodium phosphate, pH 7.4) was added to the DMSO solution with stiffing. The resulting mixture was stirred continuously and the optical density was monitored at 400 nm to observe the formation of insoluble peptide aggregates.
Alternatively, β-AP1-40 was dissolved in DMSO as described above at 1.6 mM (6.9 mg/ml) and aliquots (25 μl) were added to stirred buffer (475 μl), followed by monitoring of absorbance at 400 nm […]

β-AP1-40 = target: T4, β-AP1-40 (Homo sapiens, UniProt P05067); test: Static aggregation assay (SDS-PAGE); format: biochemical
T4 construct: (β-AP1-40) was obtained commercially from Bachem (Torrance, Calif.); purchased Bachem (Torrance, Calif.)
Protocol: In a third assay, β-AP aggregation was measured by visualization of the peptide aggregates using SDS-polyacrylamide gel electrophoresis (SDS-PAGE). In this assay, β-AP solutions were allowed to aggregate over a period of time and then aliquots of the reaction were run on a standard SDS-PAGE gel. Typical solution conditions were 200 μM of β-AP1-40 in PBS at 37° C. for 8 days or 200 μM β-AP1-40 in 0.1 M sodium acetate at 37° C. for 3 days. The peptide aggregates were visualized by Coomassie blue staining of the gel or, for β-AP solutions that included a biotinylated β-AP modulator, by western blotting of a filter prepared from the gel with a streptavidin-peroxidase probe, followed by a standard peroxidase assay. The β-AP aggregates are identifiable as high molecular weight, low mobility bands on the gel, which are readily distinguishable from the low molecular weight, high mobility β-AP monomer or dimer bands.

T1 sequence (P05067 672-711): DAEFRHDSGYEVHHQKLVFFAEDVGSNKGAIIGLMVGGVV
T2 sequence (P05067 672-711): as above
T3 sequence (P05067 672-711): as above
T4 sequence (P05067 672-711): as above

Row | Compound | Fold Increase in Lag Time (Aβ1-40; Table IV, 10 mole %) | ΔLag (ratio of lag time with test compound to lag time of control) (Aβ1-40) | inhibition at 100 mol % (Aβ1-40) | delay of the appearance of neurotoxicity relative to control (cultured neuronal cells) | Fold Increase in Lag Time (Aβ1-40; Table IV, 100 mole %) | also measured
1 | Candidate Inhibitor 233: Aβ6-20 modified with acetic acid (HDSGYEVHHQKLVFF; also: modified with acetic acid; UniProt P05067 677-691, looked up, fragment) |  |  |  |  |  | Effect in Seeded Static Assay (Aβ(1-40) peptide [1]): ++ (A strong inhibitor of aggregation. The rate of aggregation in the presence of the inhibitor was decreased compared to the control by at least 30-50%)
2 | Candidate Inhibitor 224: Aβ1-40 mutant F19F20->T19T20 |  |  |  |  |  | Effect in shaken plate assay (Aβ(1-40) peptide [2]): Increased lag; Effect in Seeded Static Assay (Aβ(1-40) peptide [1]): ++ (A strong inhibitor of aggregation. The rate of aggregation in the presence of the inhibitor was decreased compared to the control by at least 30-50%)
3 | CC(C)C[C@H](NC(=O)[C@H](CCCCN)NC(=O)CC[C@@H](C)[C@H]1CC[C@H]2[C@@H]3[C@H](O)C[C@@H]4C[C@H](O)CC[C@]4(C)[C@H]3C[C@H](O)[C@]12C)C(=O)N[C@H](C(=O)N[C@@H](Cc1ccccc1)C(=O)N[C@@H](Cc1ccccc1)C(N)=O)C(C)C [PPI-319, cholyl-Aβ16-20-amide] | 2.7 fold | 5.4 | 70% | coincided with the delay in the time at which polymerization of Aβ began |  | Fold Increase in Lag Time (Aβ1-40; Table IV, 33 mole %): 5.6 fold
4 | CC(C)C[C@H](NC(=O)[C@H](CCCCN)NC(=O)CC[C@@H](C)[C@H]1CC[C@H]2[C@@H]3[C@H](O)C[C@@H]4C[C@H](O)CC[C@]4(C)[C@H]3C[C@H](O)[C@]12C)C(=O)N[C@H](C(=O)N[C@@H](Cc1ccccc1)C(=O)N[C@@H](Cc1ccccc1)C(=O)O)C(C)C [PPI-350, cholyl-Aβ16-20] | 2.4 fold | 1.8 | 72% | coincided with the delay in the time at which polymerization of Aβ began | >5.0 fold | Fold Increase in Lag Time (Aβ1-40; Table III, 38 mole %): 3.4 fold
5 | CC(C)C[C@H](NC(=O)[C@H](CCCCN)NC(=O)[C@H](CCC(N)=O)NC(=O)CC[C@@H](C)[C@H]1CC[C@H]2[C@@H]3[C@H](O)C[C@@H]4C[C@H](O)CC[C@]4(C)[C@H]3C[C@H](O)[C@]12C)C(=O)N[C@H](C(=O)N[C@@H](Cc1ccccc1)C(=O)N[C@@H](Cc1ccccc1)C(=O)O)C(C)C [PPI-349, cholyl-Aβ15-20] | 2.1 fold | >5 | 100% | coincided with the delay in the time at which polymerization of Aβ began | >5.0 fold | Fold Increase in Lag Time (Aβ1-40; Table III, 33 mole %): 2.3 fold; Fold Increase in Lag Time (Aβ1-40; Table IV, 33 mole %): 2.6 fold
6 | CC(C)C[C@H](NC(=O)[C@H](CCCCN)NC(=O)[C@H](CCC(N)=O)NC(=O)[C@H](Cc1c[nH]cn1)NC(=O)[C@H](Cc1c[nH]cn1)NC(=O)[C@@H](NC(=O)[C@H](CCC(=O)O)NC(=O)[C@H](Cc1ccc(O)cc1)NC(=O)CNC(=O)[C@H](CO)NC(=O)[C@H](CC(=O)O)NC(=O)[C@H](Cc1c[nH]cn1)NC(=O)CC[C@@H](C)[C@H]1CC[C@H]2[C@@H]3[C@H](O)C[C@@H]4C[C@H](O)CC[C@]4(C)[C@H]3C[C@H](O)[C@]12C)C(C)C)C(=O)N[C@H](C(=O)N[C@@H](Cc1ccccc1)C(=O)N[C@@H](Cc1ccccc1)C(=O)O)C(C)C [PPI-264, cholyl-Aβ6-20] (Cholyl-HDSGYEVHHQKLVFF-OH) | 2.0 fold |  |  |  |  | Fold Increase in Lag Time (Aβ1-40; Table II, 100 mole % vs 50 μM Aβ1-40): >4.5 fold; Fold Increase in Lag Time (Aβ1-40; Table III, 10 mole %): 2 fold; Fold Increase in Lag Time (Aβ1-40; Table III, 100 mole %): >4.5 fold; aggregation of Aβ1-40 (turbidity) (Aβ1-40; equimolar: Aβ1-40 and modulator both 64 μM, FIG. 4 panel A): effective at inhibiting aggregation of Aβ140; neurotoxicity of Aβ1-40 solution preincubated with modulator (cultured neuronal cells; modulator preincubated with Aβ1-40 monomers, applied to cells 48 hours, MTT): inhibits the neurotoxicity of the Aβ1-40 solution
7 | CC(C)C[C@H](NC(=O)CC[C@@H](C)[C@H]1CC[C@H]2[C@@H]3[C@H](O)C[C@@H]4C[C@H](O)CC[C@]4(C)[C@H]3C[C@H](O)[C@]12C)C(=O)N[C@H](C(=O)N[C@@H](Cc1ccccc1)C(=O)N[C@@H](Cc1ccccc1)C(=O)N[C@@H](C)C(=O)O)C(C)C [PPI-368, cholyl-Aβ17-21] |  | >5 | 100% | coincided with the delay in the time at which polymerization of Aβ began | >5.0 fold | 
8 | N-biotinyl-βAP1-40 |  |  |  |  |  | aggregation of natural β-AP1-40 (turbidity: lag time, slope, plateau) (natural β-AP (β-AP1-40); modulator at 1% in natural β-AP1-40 solution): markedly inhibited; aggregation of natural β-AP1-40 (turbidity) (natural β-AP (β-AP1-40); modulator at 5% in natural β-AP1-40 solution): similarly inhibited aggregation; modulator self-aggregation (high molecular weight aggregates on gel) (β-AP1-40; N-biotinyl peptide alone, no natural β-AP): few if any high molecular weight aggregates were observed; aggregation of mixture with natural β-AP1-40 (high molecular weight aggregates on gel) (β-AP1-40; mixture of natural β-AP1-40 and modulator): reduced amounts of the peptide mixture associated into high molecular weight aggregates
